Laboratory results published in article PMC6355809, “Proteinaceous Nano container Encapsulate Polycyclic Aromatic Hydrocarbons” (Scientific Reports, 2019).

Assays:
RHCC-NT [1] = molecular target: T1, RHCC-NT (Staphylothermus marinus, UniProt Q54436); experiment: Fluorescence binding assay (steady-state titration of PAH with RHCC-NT); conditions: for binding to RHCC-NT / concentration dependent fluorescence changes: result in words; for ∆G, molar Gibbs free energy for the ligand binding: ∆G = RT ln (Kd); for Fluorescence intensity at 350 nm (λexc = 275 nm): 4 µM naphthalene
Method: Fluorescence assays were used to examine the binding of RHCC-NT to PAHs as they allow discrimination between PAHs in solution and those bound to the RHCC-NT, as well as the ability to monitor PAH uptake as a function of time (Fig. 2). […] In order to minimize contributions from tyrosine fluorescence, the fluorescence emission at 350 nm was used to determine the binding affinity of naphthalene to RHCC-NT (Table 1).
Initial binding screens were performed by titrating known amounts of a single PAH with varying amounts of RHCC-NT. All assays were performed in 20 mM sodium phosphate solution containing 1% ethanol buffered at pH 7 and adjusted to 150 mM ionic strength. All samples were prepared in triplicate to a final volume of 1 mL and were left to incubate overnight at 25 °C to ensure complete equilibration. PAH fluorescence was then measured as a function of RHCC-NT concentration. Steady-state fluorescence spectra were collected using Fluorolog-3 Horiba Jobin Yvon spectrofluorometer (Edison, NJ). Excitation wavelength was set to 275 nm for naphthalene, 300 nm for acenaphthene, 350 nm for anthracene, 334 nm for chrysene and pyrene, 290 nm for acenaphthylene and fluorene. Excitation and emission slits were set to 1 nm band pass resolution. All samples were measured at 20 °C in a 10 × 3 mm^2 quartz cuvette. The obtained fluorescence data was used to calculate the binding constant Kd assuming that each PAH binds to one of two equal bindings sites in the RHCC-NT, cavity 2 or 3. The fraction of PAH bound and the concentration of unbound RHCC-NT was determined based on the following equation:1 Fractionbound=y=F−F0/F∞−F0=Bmax[RHCCfree]/Kd+[RHCCfree] where F is the experimental fluorescence signal of each sample, F∞ is the fluorescence of the PAH at infinite protein concentration, F0 is the fluorescence of the free PAH in solution, Bmax is a constant and equal to 1. The y values thus obtained were plotted as a function of free RHCC concentrations. The plotted data were then fit to Equation (1) using Sigma Plot 13 (Point Richmond, CA), yielding the binding constant Kd for each PAH bound to RHCC-NT[27].

RHCC-tetrabrachion = experiment: GC-MS/MS uptake of PAHs; assay type: binding, Staphylothermus marinus; conditions: result in words
RHCC-NT [2] = molecular target: T1, RHCC-NT; experiment: Time-scale binding assay (uptake of PAH by RHCC-NT, fluorescence); conditions: for Py-value (ratio of fluorescence emission intensities of Band I/III): 2 µM pyrene, 70 µM RHCC; for time to reach equilibrium: under the conditions of the pyrene time-scale study (10 °C), data not shown
Source text: To probe the uptake kinetics of low MW PAHs, we examined the fluorescence characteristics of pyrene in solvent in comparison to RHCC-NT bound pyrene (Fig. 4). As the bulkiest of the PAHs tested, it is expected that pyrene provides an upper bound on the equilibration time of these low MW PAHs. We took advantage of the major vibronic bands (I and III) of pyrene with defined peaks at ~373 and 384 nm[11],[12]. […] The ratio of the fluorescence emission intensities of Band I/III is defined as Py-value[13],[14] and can be employed to detect polarity in the vicinity of the probed microenvironment.
The time-scale assay was set-up by addition of pyrene to a 35-fold molar excess of RHCC in 20 mM sodium phosphate solution buffered at pH 7 and adjusted to 150 mM ionic strength. Both solutions were equilibrated to 10 °C prior to the assay. Data was collected on a Fluorolog-3 Horiba Jobin Yvon Spectrofluorometer (Edison, NJ). Excitation wavelength was set to 334 nm; emission was monitored at 384 nm; excitation and emission slits were set to 1 nm band pass resolution. Temperature was kept at 10 °C and controlled with a water bath throughout the experiment. Data was acquired every 1 minute for the first 25 minutes, following by 30 minute intervals until fluorescence signal plateaued and equilibrium achieved.

[3] = design: method as in PMID 26626387; conditions: in kJ/mol; cited from earlier work

SMILES | binding to RHCC-NT / concentration dependent fluorescence changes (RHCC-NT [1]) | uptake by RHCC-tetrabrachion (RHCC-tetrabrachion) | Kd (RHCC-NT [1]) [µM] | ∆G, molar Gibbs free energy for the ligand binding (RHCC-NT [1]) [kcal/mol] | ΔGsolv, measured solvation free energy [3] | time to reach equilibrium (RHCC-NT [2]) | other results
c1ccc2cc3c(ccc4ccccc43)cc2c1 [benz(a)anthracene] | did not exhibit any concentration dependent fluorescence changes | uptake |  |  |  |  | 
c1ccc2cc3ccccc3cc2c1 [Anthracene, anthracene] |  |  | 8.7 ± 1.5 | -6.86 |  |  | 
c1cc2ccc3cccc4ccc(c1)c2c34 [Pyrene, pyrene] |  |  | 30 ± 2 | -6.12 | −18.91 ± 2.5 |  | average uptake rate (RHCC-NT [2]; 10 °C): 1.59 nmol/hr∙mol RHCC-NT; time for complete uptake by RHCC-NT (RHCC-NT [2]; 10 °C, emission at 384 nm): around 80 hrs; Py-value (ratio of fluorescence emission intensities of Band I/III) (RHCC-NT [2]; RHCC-NT:Pyrene time = 0, 10 °C): 1.7288; Py-value (ratio of fluorescence emission intensities of Band I/III) (RHCC-NT [2]; RHCC-NT:Pyrene time = 75 hrs, 10 °C): 0.6395
c1ccc2c(c1)ccc1ccccc12 [phenanthrene] | did not exhibit any concentration dependent fluorescence changes | uptake |  |  | −16.2 ± 2.5 |  | 
c1ccc2c(c1)-c1cccc3cccc-2c13 [fluoranthene] | did not exhibit any concentration dependent fluorescence changes | uptake |  |  |  |  | 
c1cc2c3c(cccc3c1)CC2 [Acenaphthene, acenaphthene] |  |  | 8.9 ± 1.8 | -6.84 |  | ca. 1 min | 
c1ccc2ccccc2c1 [Naphthalene, naphthalene] |  |  | 17 ± 1.4 | -6.48 | −10.0 ± 2.5 | ca. 1 min | Fluorescence intensity at 350 nm (λexc = 275 nm) (RHCC-NT [1]; [RHCC] 0 µM): 708292; Fluorescence intensity at 350 nm (λexc = 275 nm) (RHCC-NT [1]; [RHCC] 0.12 µM): 709824; Fluorescence intensity at 350 nm (λexc = 275 nm) (RHCC-NT [1]; [RHCC] 0.24 µM): 730572; Fluorescence intensity at 350 nm (λexc = 275 nm) (RHCC-NT [1]; [RHCC] 0.48 µM): 733694; Fluorescence intensity at 350 nm (λexc = 275 nm) (RHCC-NT [1]; [RHCC] 0.96 µM): 780644; Fluorescence intensity at 350 nm (λexc = 275 nm) (RHCC-NT [1]; [RHCC] 1.9 µM): 906120; Fluorescence intensity at 350 nm (λexc = 275 nm) (RHCC-NT [1]; [RHCC] 3.8 µM): 1003650; Fluorescence intensity at 350 nm (λexc = 275 nm) (RHCC-NT [1]; [RHCC] 7.7 µM): 1177910; Fluorescence intensity at 350 nm (λexc = 275 nm) (RHCC-NT [1]; [RHCC] 15.4 µM): 1420260; Fluorescence intensity at 350 nm (λexc = 275 nm) (RHCC-NT [1]; [RHCC] 30.75 µM): 1845910; Fluorescence intensity at 350 nm (λexc = 275 nm) (RHCC-NT [1]; [RHCC] 61.5 µM): 1873130
C1=Cc2cccc3cccc1c23 [Acenaphthylene, acenaphthylene] |  |  | 32 ± 7 | -6.09 |  | ca. 1 min | 
c1ccc2c(c1)ccc1c3ccccc3ccc21 [Chrysene, chrysene] |  |  | 27 ± 5.6 | -6.19 |  |  | 
c1ccc2c(c1)Cc1ccccc1-2 [Fluorene, fluorene] |  |  | 5.4 ± 1.6 | -7.15 |  |  | 
